Test results reported in patent US20140017336A1, “CO-ADMINISTRATION OF ARSENIC COMPOUNDS AND ANTI-HERPES VIRUS ANTI-VIRALS” (priority 2011, published 2014).
Entries after “also recorded” stand apart in the source; their conditions may differ.

Experiments:
[1] = system: EBV immediate early protein Zta; assay: Zta immunofluorescence in EBV infected A549 cells; assay type: cell-based, Epstein-Barr virus
Procedure: A549 cells were plated on 8-chambered Lab-Tek slides at 3×10^4 cells per well; chemical treatment began 24 hours after plating. At specified time points, cells were rinsed twice with PBS and fixed in 4% paraformaldehyde (freshly diluted from 16%, Electron Microscopy Science, Hatfield, Pa.) for 10 min at room temperature. The cells were then rinsed twice with PBS and permeabilized with 0.5% Triton™ X100 (Sigma) in PBS for 15 min at room temperature. Primary antibodies were applied at specified concentrations overnight in a humidified chamber at 4° C. Following 3 rinses in PBS, secondary antibodies were diluted 1:500 and applied for 1 hour at room temperature. The chambers were removed and Vectashield® with DAPI (Vector Laboratories, Burlingame, Calif. #H1200) was applied with cover slip mount. […]
To investigate the ability of ATO to disrupt PML NB in EBV infected A549 cells, cells were treated with varying doses of ATO for 24 hours and PML NBs were imaged. […] To assess whether EBV positivity affected PML protein levels, cell fractions from two separate EBV infections (A549<EBV>2C and A549<EBV>3A) and uninfected parental A549 cells were analyzed by western blot. […] To quantify the increase in Zta expression, mRNA isolated from A549<EBVBX1>3A cells treated with varying doses of ATO for 72 hours was analyzed by qRT-PCR. […]

EBV Zta mRNA = assay: qRT-PCR of Zta mRNA in CNE1<EBV-BX1> cells; assay type: cell-based, Epstein-Barr virus
EBV BMRF1 mRNA = assay: qRT-PCR of BMRF1 mRNA in CNE1<EBV-BX1> cells; assay type: cell-based, Epstein-Barr virus
CNE1<EBV BX1> tumors = assay: CNE1<EBV BX1> nasopharyngeal carcinoma xenograft, tumor volume; assay type: in vivo, male nude mice; details: 21 days of once daily treatment; GCV 100 μg/g, ATO 100 ng/g; carrier control just under double
EBV Zta protein = assay type: in vivo, male nude mice; details: tumors harvested at 21 days of treatment
[2] = system: MUTU1 cells (EBV positive Burkitt's lymphoma-derived); assay: Viable cell count (trypan blue exclusion), MUTU1 cells; assay type: cell-based, human; details: 10 nM or 100 nM ATO, 2 and 3 days
EBV Zta = assay: Western blot of Zta in MUTU1 cells; assay type: cell-based, Epstein-Barr virus; details: 0, 10 nM, 100 nM ATO, day 3
Zta mRNA = Zta mRNA transcription in LCL<EBV1-13> cells; assay type: cell-based, Epstein-Barr virus; details: three days, 10 nM ATO
Procedure: FIGS. 8A-D. B-cells recently isolated from a patient were infected with EBV, allowed to grow out for several generations (only the EBV-infected cells would be able to grow out), and frozen until use. FIGS. 8A and B. FIGS. 8A and B graph the relative percent of viability of EBV-infected B-cells as just described (LCL<EBV1-13> cells) thawed and grown in one of: media alone (“control”), media and 45 μM ganciclovir (GCV), media and […] arsenic trioxide (ATO), or media and a combination of these concentrations of GCV and ATO. The bars show the relative viability of cells after 2 days of this treatment (“2 D,” FIG. 8A), and at three days (“3 D,” FIG. 8B). FIG. 8C. Epstein-Barr nuclear antigen (“EBNA”) driven by the C promoter (“Cp”) is transcribed only during the latent phase of the virus. FIG. 8C graphs the relative expression of EBNA Cp mRNA of LCL<EBV1-13> cells grown three days (“3 D”) in media alone (“control”), media and 45 μM ganciclovir (GCV), media and 10 nM arsenic trioxide (ATO), or media and a combination of these concentrations of GCV and ATO. […] FIG. 8D. FIG. 8D graphs the relative transcription of the viral immediate early protein Zta mRNA of LCL<EBV1-13> cells grown three days (“3 D”) in media alone (“control”), media and 45 μM ganciclovir (GCV), media and 10 nM arsenic trioxide (ATO), or media and a combination of these concentrations of GCV and ATO. […]

[3] = system: uninfected parental A549 cells; details: 4 days, 10 nM ATO, 40 μM GCV
A549<EBVBX1>3A cells = assay: Annexin V/propidium iodide viability, EBV infected A549 cells; details: 4 days
[4] = 4 days, 1 nM ATO and/or 40 μM GCV

Substance: arsenic trioxide [ATO]
- cells staining positively for Zta ([1]; day 8, 10 nM ATO plus or minus GCV): 100%
- number of Zta positive cells, dose response ([1]; varying doses of ATO, 72 hours (3 days), two separate EBV infections of A549 cells): increase in the number of Zta positive cells in an ATO dose responsive manner; also recorded: increases the number of Zta positive cells in a dose dependent manner
- ATO dose inducing upregulation of ZTA mRNA (EBV Zta mRNA; 48 hours, 'as low as'): 1.25 nM
- Zta mRNA expression compared to control (EBV Zta mRNA; [4]): increased
- ATO dose inducing upregulation of BMRF1 mRNA (EBV BMRF1 mRNA; 48 hours, 'as low as', to a lesser extent than ZTA): 1.25 nM
- BMRF1 mRNA expression compared to control (EBV BMRF1 mRNA; [4]): increased
- tumor size increase over size at day 7 (pre-treatment) (CNE1<EBV BX1> tumors): approximately 10%
- Zta expression in tumor explant tissue (EBV Zta protein): large pockets of reactivation
- cell viability, EBV positive MUTU cells [2]: dose and time dependent suppression of cell viability
- Zta expression (Western blot), EBV positive MUTU cells (EBV Zta): markedly enhanced reactivation of the EBV lytic cycle; also recorded: show Zta expression
- relative transcription of Zta mRNA (Zta mRNA): approximately fourfold higher
- viability of uninfected parental cells [3]: did not affect the viability; also recorded: no effect on the viability
- percentage of annexin V positive cells (A549<EBVBX1>3A cells; control 21%): 58%
- percentage of viable cells (A549<EBVBX1>3A cells; EBV positive cells, control 67%): 35%
